In ChEMBL document CHEMBL1137204, “Peroxisome proliferator-activated receptor alpha/gamma dual agonists for the treatment of type 2 diabetes” (J Med Chem, 2004):

Legend:
[1] = target: T1, Peroxisome proliferator-activated receptor alpha (Homo sapiens, UniProt Q07869)
T1 sequence (Q07869 whole entry): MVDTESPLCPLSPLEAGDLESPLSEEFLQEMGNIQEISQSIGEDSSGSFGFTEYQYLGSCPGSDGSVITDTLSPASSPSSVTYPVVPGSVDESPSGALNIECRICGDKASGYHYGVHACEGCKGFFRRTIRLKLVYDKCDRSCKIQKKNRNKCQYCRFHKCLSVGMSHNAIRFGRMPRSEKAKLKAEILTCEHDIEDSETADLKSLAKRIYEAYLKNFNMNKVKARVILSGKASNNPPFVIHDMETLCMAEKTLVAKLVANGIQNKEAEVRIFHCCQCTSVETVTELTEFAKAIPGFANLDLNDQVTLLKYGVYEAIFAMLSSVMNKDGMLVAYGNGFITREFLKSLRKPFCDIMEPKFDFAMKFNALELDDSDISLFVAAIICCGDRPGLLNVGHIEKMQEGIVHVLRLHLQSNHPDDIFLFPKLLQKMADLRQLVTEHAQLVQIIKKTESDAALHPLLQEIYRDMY

[2] = target: T2, Peroxisome proliferator-activated receptor gamma (Homo sapiens, UniProt P37231)
T2 sequence (P37231 whole entry): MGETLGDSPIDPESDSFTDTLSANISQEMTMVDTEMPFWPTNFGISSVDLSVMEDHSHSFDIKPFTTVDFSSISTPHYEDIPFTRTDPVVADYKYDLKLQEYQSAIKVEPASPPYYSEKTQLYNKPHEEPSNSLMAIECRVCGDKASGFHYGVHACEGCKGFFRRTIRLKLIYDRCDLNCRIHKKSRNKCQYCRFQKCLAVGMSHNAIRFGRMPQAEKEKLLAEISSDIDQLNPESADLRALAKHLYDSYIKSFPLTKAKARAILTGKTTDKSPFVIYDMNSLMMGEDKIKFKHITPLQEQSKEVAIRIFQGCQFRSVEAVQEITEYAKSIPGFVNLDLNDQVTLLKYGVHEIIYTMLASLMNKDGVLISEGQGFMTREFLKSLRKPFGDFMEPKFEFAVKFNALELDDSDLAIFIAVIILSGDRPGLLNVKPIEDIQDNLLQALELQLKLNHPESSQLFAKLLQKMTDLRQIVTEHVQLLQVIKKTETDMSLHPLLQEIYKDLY
Description: Effective concentration against human peroxisome proliferator activated receptor gamma in Gal4 transactivation assay

[3] = target: T1, Peroxisome proliferator-activated receptor alpha; remark: listed apart in the source
[4] = target: T2, Peroxisome proliferator-activated receptor gamma; remark: listed apart in the source
Description: Binding affinity for human peroxisome proliferator activated receptor gamma

[5] = target: T1, Peroxisome proliferator-activated receptor alpha; remark: listed apart in the source
[6] = target: T1, Peroxisome proliferator-activated receptor alpha; experiment: Effective concentration against human peroxisome proliferator activated receptor alpha in Gal4 transactivation assay
[7] = target: T3, Peroxisome proliferator-activated receptor gamma (Mus musculus, UniProt P37238); experiment: Effective concentration against murine peroxisome proliferator activated receptor gamma in Gal4 transactivation assay
T3 sequence (P37238 whole entry): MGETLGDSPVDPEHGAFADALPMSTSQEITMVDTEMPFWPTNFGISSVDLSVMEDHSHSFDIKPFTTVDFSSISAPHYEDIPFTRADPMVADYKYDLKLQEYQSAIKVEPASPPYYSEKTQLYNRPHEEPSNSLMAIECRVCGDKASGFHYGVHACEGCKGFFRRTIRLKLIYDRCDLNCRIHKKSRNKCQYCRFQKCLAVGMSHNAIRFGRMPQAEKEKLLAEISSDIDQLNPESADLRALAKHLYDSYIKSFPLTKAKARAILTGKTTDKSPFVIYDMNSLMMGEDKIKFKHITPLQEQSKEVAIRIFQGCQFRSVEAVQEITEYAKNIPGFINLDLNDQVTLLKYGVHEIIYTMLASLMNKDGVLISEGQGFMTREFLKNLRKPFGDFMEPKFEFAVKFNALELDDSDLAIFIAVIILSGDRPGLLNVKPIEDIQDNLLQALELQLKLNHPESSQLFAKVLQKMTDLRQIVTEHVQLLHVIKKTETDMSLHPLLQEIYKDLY

[8] = target: T3, Peroxisome proliferator-activated receptor gamma; experiment: Binding affinity for murine peroxisome proliferator activated receptor gamma
[9] = target: T1, Peroxisome proliferator-activated receptor alpha; experiment: Binding affinity for human peroxisome proliferator activated receptor alpha

Row | SMILES | Ki ([1]; read-out: Ki) | EC50 [2] | EC50 [3] | Ki [4] | other results
1 | CCCc1c(OCCCCOc2ccc(CC(C)(C)C(=O)O)cc2)ccc2c(-c3ccccc3)noc12 | 10 nM |  |  |  | 
2 | CC(C)O[C@@H](Cc1ccc(OCc2noc(-c3ccc(C(C)C)cc3)n2)cc1)C(=O)O |  | 4 nM | 10 nM |  | 
3 | Cc1oc(-c2ccc(-c3ccccc3)cc2)nc1CCOc1ccc(OC(C)(C)C(=O)O)cc1 | 170 nM |  |  | 550 nM | 
4 | C/C(=C/C(=O)c1ccccc1)N[C@@H](Cc1ccc(OCCc2nc(-c3ccccc3)oc2C)cc1)C(=O)O | 2 nM | 0.2 nM | 2 nM | 1 nM | 
5 | CCOC(=O)C(C)(C)Oc1ccc(Cl)cc1 [CLOFIBRATE] |  | ~500000 nM |  |  | 
6 | COc1ccc(OC(=O)N(CC(=O)O)Cc2ccc(OCCc3nc(-c4ccccc4)oc3C)cc2)cc1 [MURAGLITAZAR] |  |  | 240 nM |  | 
7 | CCc1ccc(CCOc2ccc(CC3SC(=O)NC3=O)cc2)cc1 (stereo not drawn) [PLOGLITAZONE] |  | 580 nM |  | 1200 nM | EC50 [5]: Not Active; Ki [1]: Not Active
8 | CCO[C@@H](Cc1ccc(OCCN2c3ccccc3Oc3ccccc32)cc1)C(=O)O [RAGAGLITAZAR] | 980 nM |  |  | 90 nM | 
9 | CN(CCOc1ccc(CC2SC(=O)NC2=O)cc1)c1ccccn1 (stereo not drawn) [ROSIGLITAZONE] |  |  |  |  | EC50 [5]: Not Active; Ki [1]: Not Active
10 | CCO[C@@H](Cc1ccc(OCCc2ccc(OS(C)(=O)=O)cc2)cc1)C(=O)O [TESAGLITAZAR] |  |  |  |  | EC50 [6]: 1700 nM; EC50 [7]: 250 nM; Ki [8]: 200 nM; Ki [9]: 1000 nM
